Here are results for one compound from patent publication US20220370467A1, “USING OF A PPAR-DELTA AGONIST IN THE TREATMENT OF KIDNEY DISEASE” (Reneo Pharmaceuticals, Inc., priority 2019, published 2022).

One test deals with T1, hPPARγ (Homo sapiens, UniProt P37231).
T1 construct: expressed in transfected cells; host or cells: HEK293
T1 sequence (P37231 238-503 limits assumed): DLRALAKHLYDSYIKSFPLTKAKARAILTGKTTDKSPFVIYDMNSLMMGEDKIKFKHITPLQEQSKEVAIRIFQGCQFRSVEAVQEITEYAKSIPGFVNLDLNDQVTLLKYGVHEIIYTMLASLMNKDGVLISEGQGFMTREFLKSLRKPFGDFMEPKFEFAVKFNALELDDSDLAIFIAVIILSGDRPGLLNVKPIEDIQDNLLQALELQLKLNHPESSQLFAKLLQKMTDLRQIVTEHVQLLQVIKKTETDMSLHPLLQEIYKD
As to the kind of experiment: in vitro assay on human PPAR subtypes (transactivation): hPPARγ. Format: cell-based. The source says:
“Activation” here is defined as the abovementioned downstream response, which in the case of PPAR's is gene transcription. Gene transcription may be measured indirectly as downstream production of proteins reflective of the activation of the particular PPAR subtype under study. Alternatively, an artificial reporter construct may be employed to study the activation of the individual PPAR's expressed in cells. The ligand binding domain of the particular receptor to be studied may be fused to the DNA binding domain of a transcription factor, which produces convenient laboratory readouts, such as the yeast GAL4 transcription factor DNA binding domain. The fusion protein may be transfected into a laboratory cell line along with a Gal4 enhancer, which effects the expression of the luciferase protein. When such a system is transfected into a laboratory cell line, binding of a receptor agonist to the fusion protein will result in light emission.
The PPAR transient transactivation assay may be based on transient transfection into human HEK293 cells of two plasmids encoding a chimeric test protein and a reporter protein respectively. […] The amount of luciferase protein is measured by light emission after addition of the appropriate substrate. […]

In a further test the target is T2, LXRβ (Homo sapiens, UniProt P55055).
T2 sequence (P55055 1-460): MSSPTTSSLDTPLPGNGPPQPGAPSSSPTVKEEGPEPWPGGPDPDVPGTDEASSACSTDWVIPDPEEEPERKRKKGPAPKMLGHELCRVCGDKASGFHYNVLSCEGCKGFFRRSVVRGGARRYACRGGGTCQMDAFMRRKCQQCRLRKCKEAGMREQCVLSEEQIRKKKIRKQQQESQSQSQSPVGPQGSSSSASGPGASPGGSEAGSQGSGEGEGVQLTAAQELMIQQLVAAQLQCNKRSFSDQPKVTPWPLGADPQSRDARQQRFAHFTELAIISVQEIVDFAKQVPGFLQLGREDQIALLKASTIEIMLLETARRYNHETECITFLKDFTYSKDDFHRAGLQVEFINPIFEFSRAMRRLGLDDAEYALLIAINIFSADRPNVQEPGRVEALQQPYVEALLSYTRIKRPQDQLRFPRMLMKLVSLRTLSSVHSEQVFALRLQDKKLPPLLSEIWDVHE
As to the kind of experiment: activity on nuclear receptor LXRβ.

As to `Cc1cc(OC/C=C(/c2ccc(F)cc2)c2ccc(C#CCN3CCOCC3)cc2)ccc1OCC(=O)O` [Compound 1, (E)-[4-[3-(4-Fluorophenyl)-3-[4-[3-(morpholin-4-yl)propynyl]phenyl]allyloxy]-2-methyl-phenoxy]acetic acid], the “agonist type on PPARγ” value at hPPARγ was “partial agonist”. At hPPARγ (in some cases), the “activity on PPARγ in transactivation assays” value was “negligible activity”. On LXRβ, the “activity on LXRβ” value is “did not show any”.
